Laboratory results reported in US6355799B1, “Substituted benzene compounds, process for their preparation, and herbicidal and defoliant compositions containing them” (ISK Americas Incorporated, priority 1997, dated 2002).

Assays:
Assay type in all cases: in vivo
[1] = test system: redroot pigweed (Amaranthus retroflexus, AMARE); assay: Pre-emerge test, greenhouse herbicide activity screening
Summary of the method: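 Compounds in acetone were track-sprayed at 15-1000 g ai/ha (187 l/ha) on sandy loam pots: pre-emerge one day after seeding, post-emerge at 2-3 leaf stage with 0.25% v/v non-ionic surfactant. Phytotoxicity was rated 14 days later on a 0 (no damage) to 100 (complete death) scale.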

[2] = test system: barnyardgrass (Echinochloa crus-galli, ECHCG); assay: as above
Summary of the method: (§1)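 Visual ratings on a 0-100 scale (0 no damage, 100 all plants dead) were taken at 14 days after treatment. Rates of 15-1000 g ai/ha in acetone, 187 l/ha, were sprayed onto soil one day after planting (pre-emerge) or onto 2-3 leaf plants with 0.25% v/v surfactant (post-emerge).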

[3] = test system: green foxtail (Setaria viridis, SETVI); assay: as above
Summary of the method: as §1

[4] = test system: ivyleaf morningglory (Ipomoea hederacea, IPOHE); assay: as above
Summary of the method: as §1

[5] = test system: johnsongrass (Sorghum halepense, SORHA); assay: as above
Summary of the method: as §1

[6] = test system: lambsquarters (Chenopodium album, CHEAL); assay: as above
Summary of the method: as §1

[7] = test system: large crabgrass (Digitaria sanguinalis, DIGSA); assay: as above
Summary of the method: as §1

[8] = test system: sicklepod (Cassia obtusifolia, CASOB); assay: as above
Summary of the method: as §1

[9] = test system: velvetleaf (Abutilon theophrasti, ABUTH); assay: as above
Summary of the method: as §1

[10] = test system: field corn (Zea mays L., var. Dekalb 535, CORN); assay: Pre-emerge test, crop safety
Summary of the method: (§2)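 Sandy loam pots; pre-emerge: sown 1 d pre-spray, surface-watered after, then bottom-watered. Post-emerge: sown 8–21 d before, 2–3 leaf stage, + 0.25% v/v NIS, bottom-watered. Acetone, 187 l/ha track spray, 15–1000 g ai/ha. 0–100 injury score, day 14.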

[11] = test system: upland rice (Oryza sp., var. Tebonnet, RICE); assay: Pre-emerge test, crop safety
Summary of the method: as §2

[12] = test system: barnyardgrass (Echinochloa crus-galli, ECHCG); assay: Post-emerge test, greenhouse herbicide activity screening; details: post-emerge, 14 days after application, rating scale 0-100
Summary of the method: (§3)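 Fourteen days after spraying, crop and weed injury was graded visually from 0, no effect, to 100, every plant dead. Test substances were dissolved in acetone and applied at 15–1000 g ai/ha with a flat-fan nozzle. Application was either pre-emergence, one day after sowing, or post-emergence at the 2–3 leaf stage.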

[13] = test system: green foxtail (Setaria viridis, SETVI); assay: as above; details: post-emerge, 14 days after application, rating scale 0-100
Summary of the method: as §3

[14] = test system: ivyleaf morningglory (Ipomoea hederacea, IPOHE); assay: as above; details: post-emerge, 14 days after application, rating scale 0-100
Summary of the method: as §3

[15] = test system: johnsongrass (Sorghum halepense, SORHA); assay: as above; details: post-emerge, 14 days after application, rating scale 0-100
Summary of the method: as §3

[16] = test system: lambsquarters (Chenopodium album, CHEAL); assay: as above; details: post-emerge, 14 days after application, rating scale 0-100
Summary of the method: as §3

[17] = test system: large crabgrass (Digitaria sanguinalis, DIGSA); assay: as above; details: post-emerge, 14 days after application, rating scale 0-100
Summary of the method: as §3

[18] = test system: redroot pigweed (Amaranthus retroflexus, AMARE); assay: as above; details: post-emerge, 14 days after application
Summary of the method: as §3

[19] = test system: sicklepod (Cassia obtusifolia, CASOB); assay: as above; details: post-emerge, 14 days after application, rating scale 0-100
Summary of the method: as §3

[20] = test system: velvetleaf (Abutilon theophrasti, ABUTH); assay: as above; details: post-emerge, 14 days after application, rating scale 0-100
Summary of the method: as §3

[21] = test system: field corn (Zea mays L., var. Dekalb 535, CORN); assay: Post-emerge test, crop safety; details: post-emerge, 14 days after application, rating scale 0-100
Summary of the method: as §1

[22] = test system: upland rice (Oryza sp., var. Tebonnet, RICE); assay: Post-emerge test, crop safety; details: post-emerge, 14 days after application, rating scale 0-100
Summary of the method: as §1

[23] = 63 g ai/ha, phytotoxicity rating 0-100, 14 days after application
[24] = 250 g ai/ha, phytotoxicity rating 0-100, 14 days after application
[25] = 63 g ai/ha, crop damage rating 0-100, 14 days after application
[26] = 250 g ai/ha, crop damage rating 0-100, 14 days after application
[27] = 63 g ai/ha, rating scale 0-100 (0 no damage, 100 complete death)
[28] = 250 g ai/ha, rating scale 0-100
[29] = pre-emerge, rate 63 g ai/ha, phytotoxicity rating 0-100 at 14 days after application
[30] = pre-emerge, rate 250 g ai/ha, phytotoxicity rating 0-100 at 14 days after application
[31] = crop damage, pre-emerge, rate 63 g ai/ha, phytotoxicity rating 0-100 at 14 days after application
[32] = crop damage, pre-emerge, rate 250 g ai/ha, phytotoxicity rating 0-100 at 14 days after application

Cc1c(Cl)cc(F)c(-n2c(=O)cc(C(F)(F)F)n(C)c2=O)c1NC(=O)OCc1ccccc1Cl [4-54]
80: Pre-emerge Herbicidal Activity SORHA [5, 24] | Pre-emerge Herbicidal Activity CASOB [8, 24] | phytotoxicity rating ECHCG ([12]; 250 g ai/ha) | phytotoxicity rating SETVI ([13]; 63 g ai/ha)
0: Pre-emerge Herbicidal Activity CORN [10, 25]
10: Pre-emerge Herbicidal Activity RICE [11, 25]
5: Pre-emerge Herbicidal Activity CORN [10, 26]
100: Pre-emerge Herbicidal Activity AMARE [1, 23] | Pre-emerge Herbicidal Activity AMARE [1, 24] | Pre-emerge Herbicidal Activity SETVI [3, 24] | Pre-emerge Herbicidal Activity CHEAL [6, 24] | Pre-emerge Herbicidal Activity DIGSA [7, 24] | Pre-emerge Herbicidal Activity ABUTH [9, 23] | phytotoxicity rating IPOHE ([14]; 63 g ai/ha) | phytotoxicity rating IPOHE ([14]; 250 g ai/ha) | phytotoxicity rating CHEAL ([16]; 63 g ai/ha) | phytotoxicity rating CHEAL ([16]; 250 g ai/ha) | phytotoxicity rating AMARE [18, 27] | phytotoxicity rating AMARE [18, 28] | phytotoxicity rating CASOB ([19]; 250 g ai/ha) | phytotoxicity rating ABUTH ([20]; 63 g ai/ha) | phytotoxicity rating ABUTH ([20]; 250 g ai/ha) | phytotoxicity rating RICE (crop damage) ([22]; 250 g ai/ha)
40: phytotoxicity rating SORHA ([15]; 63 g ai/ha) | phytotoxicity rating CORN (crop damage) ([21]; 63 g ai/ha)
90: Pre-emerge Herbicidal Activity SETVI [3, 23] | Pre-emerge Herbicidal Activity CHEAL [6, 23] | Pre-emerge Herbicidal Activity ABUTH [9, 24] | phytotoxicity rating SETVI ([13]; 250 g ai/ha) | phytotoxicity rating CASOB ([19]; 63 g ai/ha) | phytotoxicity rating RICE (crop damage) ([22]; 63 g ai/ha)
50: Pre-emerge Herbicidal Activity ECHCG [2, 23]
85: Pre-emerge Herbicidal Activity ECHCG [2, 24]
75: phytotoxicity rating CORN (crop damage) ([21]; 250 g ai/ha)
70: Pre-emerge Herbicidal Activity IPOHE [4, 24] | phytotoxicity rating ECHCG ([12]; 63 g ai/ha) | phytotoxicity rating SORHA ([15]; 250 g ai/ha)
30: Pre-emerge Herbicidal Activity IPOHE [4, 23] | Pre-emerge Herbicidal Activity SORHA [5, 23] | Pre-emerge Herbicidal Activity CASOB [8, 23] | phytotoxicity rating DIGSA ([17]; 63 g ai/ha)
60: Pre-emerge Herbicidal Activity DIGSA [7, 23] | Pre-emerge Herbicidal Activity RICE [11, 26] | phytotoxicity rating DIGSA ([17]; 250 g ai/ha)

Cc1cccc(C)c1OC(=O)Nc1c(C)c(Cl)cc(F)c1-n1c(=O)cc(C(F)(F)F)n(C)c1=O [4-55]
70: Pre-emerge Herbicidal Activity IPOHE [4, 30] | Pre-emerge Herbicidal Activity DIGSA [7, 30]
20: Pre-emerge Herbicidal Activity IPOHE [4, 29] | phytotoxicity rating ECHCG ([12]; 250 g ai/ha) | phytotoxicity rating CASOB ([19]; 63 g ai/ha)
0: Pre-emerge Herbicidal Activity ECHCG [2, 29] | Pre-emerge Herbicidal Activity SORHA [5, 29] | Pre-emerge Herbicidal Activity DIGSA [7, 29] | Pre-emerge Herbicidal Activity CASOB [8, 29] | Pre-emerge Herbicidal Activity CORN [10, 31] | Pre-emerge Herbicidal Activity RICE [11, 31] | phytotoxicity rating ECHCG ([12]; 63 g ai/ha) | phytotoxicity rating SORHA ([15]; 63 g ai/ha) | phytotoxicity rating DIGSA ([17]; 63 g ai/ha) | phytotoxicity rating RICE (crop damage) ([22]; 63 g ai/ha)
85: phytotoxicity rating IPOHE ([14]; 250 g ai/ha)
40: Pre-emerge Herbicidal Activity SETVI [3, 29] | phytotoxicity rating SETVI ([13]; 250 g ai/ha) | phytotoxicity rating IPOHE ([14]; 63 g ai/ha) | phytotoxicity rating CASOB ([19]; 250 g ai/ha)
5: phytotoxicity rating CORN (crop damage) ([21]; 250 g ai/ha)
100: Pre-emerge Herbicidal Activity CHEAL [6, 30] | Pre-emerge Herbicidal Activity ABUTH [9, 30] | phytotoxicity rating ABUTH ([20]; 63 g ai/ha) | phytotoxicity rating ABUTH ([20]; 250 g ai/ha)
50: phytotoxicity rating CHEAL ([16]; 63 g ai/ha) | phytotoxicity rating AMARE [18, 27]
30: Pre-emerge Herbicidal Activity AMARE [1, 29] | Pre-emerge Herbicidal Activity ECHCG [2, 30] | Pre-emerge Herbicidal Activity CASOB [8, 30] | Pre-emerge Herbicidal Activity CORN [10, 32]
80: Pre-emerge Herbicidal Activity ABUTH [9, 29] | phytotoxicity rating AMARE [18, 28]
10: phytotoxicity rating SETVI ([13]; 63 g ai/ha) | phytotoxicity rating SORHA ([15]; 250 g ai/ha) | phytotoxicity rating DIGSA ([17]; 250 g ai/ha) | phytotoxicity rating CORN (crop damage) ([21]; 63 g ai/ha)
35: phytotoxicity rating RICE (crop damage) ([22]; 250 g ai/ha)
90: Pre-emerge Herbicidal Activity AMARE [1, 30] | Pre-emerge Herbicidal Activity SETVI [3, 30] | Pre-emerge Herbicidal Activity CHEAL [6, 29] | phytotoxicity rating CHEAL ([16]; 250 g ai/ha)
60: Pre-emerge Herbicidal Activity SORHA [5, 30] | Pre-emerge Herbicidal Activity RICE [11, 32]

Cc1ccccc1COC(=O)Nc1c(C)c(Cl)cc(F)c1-n1c(=O)cc(C(F)(F)F)n(C)c1=O [4-56]
90: Pre-emerge Herbicidal Activity SETVI [3, 29] | Pre-emerge Herbicidal Activity SORHA [5, 30] | Pre-emerge Herbicidal Activity RICE [11, 32] | phytotoxicity rating ECHCG ([12]; 250 g ai/ha) | phytotoxicity rating SETVI ([13]; 63 g ai/ha) | phytotoxicity rating SORHA ([15]; 250 g ai/ha)
80: Pre-emerge Herbicidal Activity ECHCG [2, 30] | Pre-emerge Herbicidal Activity CORN [10, 32] | phytotoxicity rating CORN (crop damage) ([21]; 63 g ai/ha)
100: Pre-emerge Herbicidal Activity AMARE [1, 29] | Pre-emerge Herbicidal Activity AMARE [1, 30] | Pre-emerge Herbicidal Activity IPOHE [4, 30] | Pre-emerge Herbicidal Activity CHEAL [6, 29] | Pre-emerge Herbicidal Activity CHEAL [6, 30] | Pre-emerge Herbicidal Activity CASOB [8, 30] | Pre-emerge Herbicidal Activity ABUTH [9, 29] | Pre-emerge Herbicidal Activity ABUTH [9, 30] | phytotoxicity rating SETVI ([13]; 250 g ai/ha) | phytotoxicity rating IPOHE ([14]; 63 g ai/ha) | phytotoxicity rating IPOHE ([14]; 250 g ai/ha) | phytotoxicity rating CHEAL ([16]; 63 g ai/ha) | phytotoxicity rating CHEAL ([16]; 250 g ai/ha) | phytotoxicity rating AMARE [18, 27] | phytotoxicity rating AMARE [18, 28] | phytotoxicity rating CASOB ([19]; 63 g ai/ha) | phytotoxicity rating CASOB ([19]; 250 g ai/ha) | phytotoxicity rating ABUTH ([20]; 63 g ai/ha) | phytotoxicity rating ABUTH ([20]; 250 g ai/ha) | phytotoxicity rating CORN (crop damage) ([21]; 250 g ai/ha)
95: Pre-emerge Herbicidal Activity SETVI [3, 30] | Pre-emerge Herbicidal Activity DIGSA [7, 30]
20: phytotoxicity rating DIGSA ([17]; 63 g ai/ha)
70: phytotoxicity rating DIGSA ([17]; 250 g ai/ha)
10: Pre-emerge Herbicidal Activity CASOB [8, 29]
40: Pre-emerge Herbicidal Activity IPOHE [4, 29] | phytotoxicity rating SORHA ([15]; 63 g ai/ha)
35: Pre-emerge Herbicidal Activity CORN [10, 31]
65: phytotoxicity rating RICE (crop damage) ([22]; 63 g ai/ha)
50: Pre-emerge Herbicidal Activity ECHCG [2, 29] | Pre-emerge Herbicidal Activity SORHA [5, 29] | Pre-emerge Herbicidal Activity DIGSA [7, 29] | Pre-emerge Herbicidal Activity RICE [11, 31] | phytotoxicity rating ECHCG ([12]; 63 g ai/ha)
85: phytotoxicity rating RICE (crop damage) ([22]; 250 g ai/ha)
